Measurements taken from patent US11365192B2, “Pyridine compound substituted with azole” (TAISHO PHARMACEUTICAL CO., LTD., priority 2017, dated 2022).

Key:
human CYP4F2 = human CYP4F2 (Homo sapiens (Human), UniProt P78329); assay: Inhibition test against 20-HETE producing enzyme CYP4F2 (luciferine derivative, luminescence); format: biochemical; settings: E. coli membrane fraction expressing human CYP4F2, 2.5 μM luciferine derivative, room temperature 60 minutes
Experimental: (§1) (1) Inhibition Test for Each Compound of the Present Invention Against 20-HETE Producing Enzymes (CYP4F2 and CYP4A11)
(§2) In the CYP4F2 inhibition test, the reaction solution containing each compound [final concentration of 50 mM, KPO4 (pH 7.4), 2.5 μM luciferine derivative, and 1 mM NADPH] was added to an Escherichia coli membrane fraction (100 μg/mL protein) in which human CYP4F2 had been expressed. In the CYP4A11 inhibition test, the reaction solution containing each compound [final concentration of 100 mM, Tris-HCl (pH 7.5), 60 μM luciferine derivative, 1.3 mM NADP^+, 3.3 mM Glucose 6-Phosphate, 3.3 mM MgCl2, and 0.4 U/mL Glucose 6-Phosphate dehydrogenase] was added to an Escherichia coli membrane fraction (100 μg/mL protein) in which human CYP4A11 had been expressed. Following this, the membrane fraction was left to stand at room temperature for 60 minutes to perform an enzymatic reaction. After the reaction, a luciferine detection reagent was added, and the luminescence value was measured using a plate reader. By using that value, the percent inhibition of 20-HETE producing enzyme (%) was calculated according to the equation described below, and the 50% inhibitory concentration (IC50 value) for each compound was calculated. Percent inhibition of 20-HETE producing enzyme (%)=[1−(A−B)/(C−B)]*100
(§3) A: Luminescence value with addition of compound
(§4) B: Luminescence value without addition of compound and enzyme

human CYP4A11 = human CYP4A11 (Homo sapiens (Human), UniProt Q02928); assay: Inhibition test against 20-HETE producing enzyme CYP4A11 (luciferine derivative, luminescence); format: biochemical; settings: E. coli membrane fraction expressing human CYP4A11, 60 μM luciferine derivative, room temperature 60 minutes
Experimental: as §1, §2, §3, §4

Chain of human CYP4A11 (Q02928 5-519): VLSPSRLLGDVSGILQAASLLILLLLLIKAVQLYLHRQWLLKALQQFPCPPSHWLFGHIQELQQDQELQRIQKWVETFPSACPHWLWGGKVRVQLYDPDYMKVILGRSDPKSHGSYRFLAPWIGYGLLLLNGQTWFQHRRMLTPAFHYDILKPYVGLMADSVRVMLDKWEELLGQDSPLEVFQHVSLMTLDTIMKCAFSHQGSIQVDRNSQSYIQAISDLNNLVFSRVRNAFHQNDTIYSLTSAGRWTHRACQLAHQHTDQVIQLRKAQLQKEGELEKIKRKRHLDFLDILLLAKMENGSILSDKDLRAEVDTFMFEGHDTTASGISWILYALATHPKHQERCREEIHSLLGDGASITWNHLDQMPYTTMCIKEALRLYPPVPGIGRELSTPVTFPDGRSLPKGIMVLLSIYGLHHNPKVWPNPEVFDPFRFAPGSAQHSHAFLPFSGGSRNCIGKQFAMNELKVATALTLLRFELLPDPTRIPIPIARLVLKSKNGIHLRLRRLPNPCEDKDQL
Chain of human CYP4F2 (P78329 5-520): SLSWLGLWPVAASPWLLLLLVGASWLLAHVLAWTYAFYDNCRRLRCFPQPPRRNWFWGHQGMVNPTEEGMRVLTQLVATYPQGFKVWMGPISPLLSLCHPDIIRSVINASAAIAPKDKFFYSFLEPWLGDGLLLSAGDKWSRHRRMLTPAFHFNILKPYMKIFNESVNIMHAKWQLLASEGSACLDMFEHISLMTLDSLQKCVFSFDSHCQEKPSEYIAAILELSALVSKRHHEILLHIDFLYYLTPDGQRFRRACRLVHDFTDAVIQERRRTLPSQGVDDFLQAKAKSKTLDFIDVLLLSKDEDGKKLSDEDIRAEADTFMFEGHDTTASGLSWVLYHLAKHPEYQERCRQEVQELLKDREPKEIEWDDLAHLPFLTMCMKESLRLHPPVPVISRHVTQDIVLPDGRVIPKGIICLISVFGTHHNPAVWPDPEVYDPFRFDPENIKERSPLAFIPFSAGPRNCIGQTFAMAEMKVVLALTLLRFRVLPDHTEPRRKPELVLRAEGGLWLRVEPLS

SMILES	IC50 (human CYP4F2)	IC50 (human CYP4A11)
O=C(O)[C@H]1CC[C@H](c2cccc(COc3ccc(-c4ccn[nH]4)nc3)c2)CC1 [Example 8-2, trans-4-[3-[[6-(1H-Pyrazol-5-yl)-3-pyridinyl]oxymethyl]phenyl]-1-cyclohexanecarboxylic Acid]	6500 nM	19 nM
O=C(O)C1CCCC(c2cccc(COc3ccc(-c4ccn[nH]4)nc3)c2)C1 (centres unmarked) [Example 8-3]	860 nM	28 nM
O=C(O)c1ccccc1-c1cccc(COc2ccc(-c3ccn[nH]3)nc2)c1 [Example 8-4]	4300 nM	250 nM
CC(C)(C(=O)O)c1cccc(S(=O)(=O)CCCCOc2ccc(-c3ccn[nH]3)nc2)c1 [Example 8-5]	2300 nM	560 nM
CC(C)(CCN1CCc2ccc(COc3ccc(-c4ccn[nH]4)nc3)cc2C1=O)C(=O)O [Example 8-6]	53 nM	2500 nM
O=C(O)CCc1ccc(CCCOc2ccc(-c3ccn[nH]3)nc2)cc1 [Example 8-7]	280 nM	440 nM
O=C(O)Cc1ccc(CCCOc2ccc(-c3ccn[nH]3)nc2)cc1 [Example 8-8]	1100 nM	260 nM
O=C(O)COc1ccc(COc2ccc(-c3ccn[nH]3)nc2)cc1 [Example 8-9]	6200 nM	29 nM
O=C(O)c1ccnc(-c2cccc(COc3ccc(-c4ccn[nH]4)nc3)c2)c1 [Example 8-10]	1300 nM	35 nM
O=C(O)c1cc(-c2cccc(COc3ccc(-c4ccn[nH]4)nc3)c2)ccn1 [Example 8-11]	120 nM	14 nM
O=C(O)Cn1cc(CCCCOc2ccc(-c3ccn[nH]3)nc2)cn1 [Example 8-12]	5000 nM	100 nM
CC(C)(C(=O)O)n1cc(CCCCOc2ccc(-c3ccn[nH]3)nc2)cn1 [Example 8-13]	8300 nM	120 nM
CC(C)(C(=O)O)n1ccc(CCCCOc2ccc(-c3ccn[nH]3)nc2)n1 [Example 8-14]	11000 nM	68 nM
O=C(O)Cn1ccc(CCCCOc2ccc(-c3ccn[nH]3)nc2)cc1=O [Example 8-15]	1400 nM	530 nM
O=C(O)Cc1cccc(COc2ccc(-c3ccn[nH]3)nc2)n1 [Example 8-16]	680 nM	750 nM
O=C(O)C12CC(COc3ccc(-c4ccn[nH]4)nc3)(C1)C2 [Example 8-17]	22000 nM	520 nM
O=C(O)C12CCC(COc3ccc(-c4ccn[nH]4)nc3)(CC1)CC2 [Example 8-18]	16000 nM	52 nM
CC(C)(OCCCCOCCCCOc1ccc(-c2ccn[nH]2)nc1)C(=O)O [Example 9-2]	1100 nM	1800 nM
CC(C)(OCCCOCCCCOc1ccc(-c2ccn[nH]2)nc1)C(=O)O [Example 9-3]	490 nM	1400 nM
O=C(O)CCCCOc1ccc(-c2ccn[nH]2)nc1 [Example 10-1, 5-[[6-(1H-Pyrazol-5-yl)-3-pyridinyl]oxy]pentanoic Acid]	19000 nM	560 nM
O=C(O)COc1cccc(COc2ccc(-c3ccn[nH]3)nc2)c1 [Example 10-2, 2-[3-[[6-(1H-Pyrazol-5-yl)-3-pyridinyl]oxymethyl]phenoxy]acetic Acid]	1100 nM	23 nM
Oc1cc(CCCOc2ccc(-c3ccn[nH]3)nc2)cc(F)c1F [Example 11-1, 2,3-Difluoro-5-[3-[[6-(1H-pyrazol-5-yl)-3-pyridinyl]oxy]propyl]phenol]	5.1 nM	140 nM

SMILES	IC50 (human CYP4F2)	IC50 (human CYP4A11)
Oc1cccc(CCCOc2ccc(-c3ccn[nH]3)nc2)c1 [Example 11-2]	19 nM	520 nM
Oc1cc(CCCOc2ccc(-c3ccn[nH]3)nc2)ccc1F [Example 11-3]	7.3 nM	270 nM
NS(=O)(=O)CCCCCOc1ccc(-c2ccn[nH]2)nc1 [Example 11-4, 5-[[6-(1H-Pyrazol-5-yl)-3-pyridinyl]oxy]-1-pentanesulfonamide]	1300 nM	4500 nM
Cc1ccc(COc2ccc(-c3ccn[nH]3)nc2)cc1O [Example 12-1, 2-Methyl-5-[[6-(1H-pyrazol-5-yl)-3-pyridinyl]oxymethyl]phenol]	6.2 nM	260 nM
Oc1cc(COc2ccc(-c3ccn[nH]3)nc2)ccc1F [Example 12-2]	11 nM	310 nM
Oc1cc(F)cc(COc2ccc(-c3ccn[nH]3)nc2)c1 [Example 12-3]	25 nM	290 nM
Oc1cccc(COc2ccc(-c3ccn[nH]3)nc2)c1 [Example 13-1, 3-[[6-(1H-Pyrazol-5-yl)-3-pyridinyl]oxymethyl]phenol]	34 nM	610 nM
Oc1ccccc1CCOc1ccc(-c2ccn[nH]2)nc1 [Example 13-2]	13 nM	400 nM
Oc1cccc(CCOc2ccc(-c3ccn[nH]3)nc2)c1 [Example 13-3]	19 nM	300 nM
O=C(O)CCS(=O)(=O)c1cccc(COc2ccc(-c3ccn[nH]3)nc2)c1 [Example 14-1, 3-[3-[[6-(1H-Pyrazol-5-yl)-3-pyridinyl]oxymethyl]phenyl]sulfonylpropanoic Acid]	2200 nM	30 nM
O=C(O)c1cnn(CCCOc2ccc(-c3ccn[nH]3)nc2)c1 [Example 15-2, 1-[3-[[6-(1H-Pyrazol-5-yl)-3-pyridinyl]oxy]propyl]-4-pyrazolecarboxylic Acid]	25000 nM	690 nM
O=C(O)c1cnn(CCCCOc2ccc(-c3ccn[nH]3)nc2)c1 [Example 15-3]	6300 nM	130 nM
O=C(O)Cn1ncc2cc(COc3ccc(-c4ccn[nH]4)nc3)ccc21 [Example 16-1, 2-[5-[[6-(1H-Pyrazol-5-yl)-3-pyridinyl]oxymethyl]-1-indazolyl]acetic Acid]	1400 nM	53 nM
CC(C)(C(=O)O)C(=O)N1CCc2ccc(COc3ccc(-c4ccn[nH]4)nc3)cc2C1 [Example 17-1, 2,2-Dimethyl-3-oxo-3-[7-[[6-(1H-pyrazol-5-yl)-3-pyridinyl]oxymethyl]-3,4-dihydro-1H-isoquinolin-2-yl]propanoic Acid]	180 nM	1400 nM
O=C(O)c1cccc(-c2cccc(COc3ccc(-c4ccn[nH]4)nc3)c2)n1 [Example 18-1, 6-[3-[[6-(1H-Pyrazol-5-yl)-3-pyridinyl]oxymethyl]phenyl]-2-pyridinecarboxylic Acid]	460 nM	13 nM
O=C(O)c1ccc(-c2cccc(COc3ccc(-c4ccn[nH]4)nc3)c2)nc1 [Example 18-2]	230 nM	12 nM
O=C(O)c1cncc(-c2cccc(COc3ccc(-c4ccn[nH]4)nc3)c2)n1 [Example 18-3]	510 nM	24 nM
O=C(O)c1cnc(-c2cccc(COc3ccc(-c4ccn[nH]4)nc3)c2)cn1 [Example 18-4]	490 nM	22 nM
CC(C)(Oc1cccc(COc2ccc(-c3ccn[nH]3)nc2)c1)C(=O)O [Example 18-5]	5200 nM	32 nM
O=C(O)c1cccc(OCCOc2ccc(-c3ccn[nH]3)nc2)c1 [Example 18-6]	6100 nM	310 nM
CS(=O)(=O)NCCCCCCOc1ccc(-c2ccn[nH]2)nc1 [Example 19-1, N-[6-[[6-(1H-Pyrazol-5-yl)-3-pyridinyl]oxy]hexyl]methanesulfonamide]	22 nM	1700 nM
